Consider 7 compounds from ChEMBL document CHEMBL1127653, “Synthesis and anticholinergic activity of the four stereoisomers of 4-(dimethylamino)-2-phenyl-2-(2-pyridyl)pentanamide” (J Med Chem, 1994).

This assay is filed under the species Cavia porcellus. In words: Inhibitory effect on acetylcholine-Induced contraction of Guinea pig iIeum. The assay is classed as functional.

`CN(C)CCC(C(N)=O)(c1ccccc1)c1ccccn1` (configuration not stated): 8.1 µM corresponded to half-maximal inhibition (Cavia porcellus) (IC50).

Compound `CC(CC(C(N)=O)(c1ccccc1)c1ccccn1)N(C)C` (racemic; form 1) [VAMICAMIDE] showed a half-maximal inhibitory concentration (IC50) of 1.5 µM.

Turning to `CC(CC(C(N)=O)(c1ccccc1)c1ccccn1)N(C)C` (racemic; form 2) [VAMICAMIDE], half-maximal inhibition (IC50) was put at 0.57 µM. On the same count and under the same terms, the figure for `C[C@H](C[C@@](C(N)=O)(c1ccccc1)c1ccccn1)N(C)C` (stereo in doubt; 10 (2R,4R)) is 0.4 µM. `C[C@H](C[C@@](C(N)=O)(c1ccccc1)c1ccccn1)N(C)C` (stereo in doubt; 11 (2S,4S)): the IC50 was determined as 31 µM. In turn, `C[C@H](C[C@@](C(N)=O)(c1ccccc1)c1ccccn1)N(C)C` (stereo in doubt; 12 (2R,4S)) displayed an IC50 of 170 µM.

In turn, `C[C@H](C[C@@](C(N)=O)(c1ccccc1)c1ccccn1)N(C)C` (stereo in doubt; 13 (2S,4R)) had a 50% inhibitory concentration (IC50) of 0.13 µM.

A word on the IC50: it is the concentration that inhibits the measured activity by half.
